Laboratory results published in US20180352845A1, “NUTRITIONAL COMPOSITIONS AND INFANT FORMULAS TO PROMOTE MYELINATION IN THE BRAIN” (NESTEC S.A., priority 2015, published 2018).

Test system: brain myelination (myelin water fraction)
Assay: Cross-sectional correlation analysis (GLM) of infant formula nutrient composition vs brain myelination by mcDESPOT MRI
Type: in vivo, human
Conditions: children up to 5 years fed different infant formulas during infancy; voxel-wise correlations, p<0.05 corrected; inter-variable correlation threshold 0.9
Method: MRI brain scans of infants and children between 0 and 5 years were acquired using a white matter imaging technique. This technique provides a quantitative measure, the Myelin Water Fraction (MWF), which is a surrogate marker of myelin content. When mapped as a function of time across early childhood, myelination trajectories can be generated.
Infant formula composition: six infant formulas fed to infants participating in study were analyzed for their composition/level of myelin-relevant nutrients.
Infants included in this study were drawn from a larger longitudinal study of normal brain and behavioral development: the Brown university Assessment of Myelination and Behavior Across Maturation (BAMBAM). To focus on neurotypical development, children with known potential risk factors for learning, neurologic, or psychiatric disorders were specifically excluded during recruitment and enrollment. Thus, children with in utero alcohol or illicit substance exposure, premature (<37 weeks gestation) or multiple birth, fetal ultrasound abnormalities, complicated pregnancy (e.g., preeclampsia), APGAR scores <8, NICU admission, neurological disorder (e.g., head injury, epilepsy), psychiatric or developmental disorders in the infant, parents or siblings (including maternal depression requiring medication) were excluded. Ongoing screenings, such as the MCAT for autism, or CBCL for behavioral problems, were further used to remove enrolled children with clinically concerning behaviors or overt medical conditions (such as autism spectrum disorders).
A combination of retrospective and prospective data were acquired from parents via detailed medical histories and parental interview on type of infant formula used, percentage of breastfeeding to formula feeding, and length of exclusive breastfeeding. This information was updated at each study visit, which occurred approximately every 6 months for children under 2 years, and yearly for older children. Using this information, children were categorized into one of 2 groups: #1. Exclusively formula-fed; and #2. Exclusively breastfed for at least 90 days (3 months). Children who were fed a combination of breastmilk and formula within 3 months were excluded from our analysis. Infants within the exclusively formula-fed group were further sub-divided based on parental reports of the main infant formula used throughout the first 3 months. Main formula was defined as that given 90% of the time or more (in the case were parents used an alternate brand during vacation, for example).
Using these criteria, 94 exclusively formula-fed infants and young children were selected into group #1. These included 13 children who received formula #2; 28 who received formula #5; 8 who received formula #3; 39 who received formula #4; 5 who received formula #1 and 1 who received formula #6. A sample of 52 exclusively breast-fed infants were also selected and matched to the over formula-fed group with regards to mean age, gestation duration, birth weight, male:female ratio, ethnicity ratio, maternal education, family size, and number of languages spoken in the home (in addition to English).
Each infant was scanned using the mcDESPOT (multicomponent Driven Equilibrium Single Pulse Observation of T1 and T2) white matter imaging technique Deoni et al. (Magn. Reson. Med. 2008, 60:1372-1387), which provides a quantitative measure of the myelin water fraction (MWF) at each imaging point throughout the brain. All infants were scanned during natural (i.e. non-sedated) sleep using acoustically-muffled mcDESPOT imaging protocols. Total imaging times ranged from 19 minutes for the youngest toddlers to 24 minutes for the older 4 year-old children.

Compound | nutritional drivers for myelination indicated by the final general linear model
CCCCC/C=C\C/C=C\C/C=C\C/C=C\CCCC(=O)O [ARA, arachidonic acid] | identified drivers
[Mg+2] [Magnesium] | identified drivers
[Ca+2] [calcium] | identified drivers
[P] [phosphorus] | identified drivers
[Zn] [zinc] | identified drivers
iron | identified drivers
phosphatidylcholine | identified drivers
phosphatidylinositol | identified drivers
sphingomyelin | identified drivers
